Results taken from patent publication US20120010176A1, “UTROPHIN PROMOTER ACTIVITY UPREGULATION FOR THE TREATMENT OF MUSCULAR DYSTROPHY” (priority 2008, published 2012).
Where a name gives a salt, the structure may show the parent alone.

How the values were obtained:
[1] = test system: utrophin promoter; experiment: utrophin promoter-luciferase reporter screen, 384-well format; format: cell-based; conditions: C2C12utrn cells; for maximal fold induction: 24 h, read-out: Max. fold change
Method: (§1) The ability of test compounds to upregulate activity of the utrophin promoter was determined using the muscle cell line C2C12utrn, which contains the utrophin gene promoter linked to the protein-encoding sequence for luciferase. Using these cells, a chemical library was screened for compounds that activate the utrophin promoter. Light production was the readout.
In the first screening, 384-well plates were used to grow C2C12 […] cells and expose to test compounds. Cells were exposed to test compounds at a single concentration for 24 hours, wherein 19 compounds of 1120 tested produced an increase of at least 20% of the activity of the luciferase reporter.
Subsequently, the 19 compounds were rescreened at 15 different concentrations.

[2] = test system: utrophin promoter; experiment: utrophin promoter-luciferase reporter assay, 96-well format; format: cell-based; conditions: for maximal fold induction: read-out: Max. fold change; for dose-dependent activation of the utrophin promoter: range of concentrations, 96-well plate format, FIGS. 1 and 2
Method: as §1
In some cases compounds were tested at a range of concentrations on test cells in a 96-well plate format.

[3] = test system: utrophin A mRNA; experiment: utrophin A mRNA upregulation in C2C12 muscle cells (TaqMan qPCR); format: cell-based; conditions: either in serum-containing or serum-free media, FIG. 4
Method: In a further experiment, the activity of kawain, equilin and nabumetone were evaluated in C2C12 muscle cells for upregulation of utrophin A mRNA (FIG. 3). C2C12 muscle cells were treated with optimal doses of compounds (based on previous dose-response data) for 24 hours, either in the presence of serum or in the absence of serum (following 24 hours of serum starvation). Trichostatin A and heregulin were used as positive controls for utrophin upregulation in the presence (trichostatin A) or absence (heregulin) of serum. Utrophin A mRNA was measured using a TaqMan qPCR assay and normalised to 18S rRNA. Data are presented as fold-changes in utrophin A mRNA compared to DMS O-only controls (compounds) or media-only controls (trichostatin A and heregulin).
Additional experiments were performed in C2C12 cells. […] C2C12 cells were treated with Prestwick compounds A, J, L and S plus TSA and heregulin (HRG) as positive controls.

[4] = test system: mice; experiment: in vivo treatment of mice: muscle weights and muscle function
Text: In vivo experiments were perfomed in mice by treating with nabumetone. […] Soleus, gastrocnemius (gastroc), tibialis anterior (TA) and quadriceps (quads) were bigger in treated mice. […] There was no difference in whole body weight between treatment groups.

[5] = 96-well format, C2C12utrn cells, luciferase readout

Row | Compound | maximal fold induction ([1]; luciferase readout) | maximal fold induction [2, 5] | dose-dependent activation of the utrophin promoter [2] | other results
1 | Nc1nc2ccc(OC(F)(F)F)cc2s1 [riluzole HCl, 6-(trifluoromethoxy)benzothiazol-2-amine] | 1.56 | 2.2 | dose-dependent activation | 
2 | c1ccc2[nH]c(-c3cscn3)nc2c1 [tiabendazole, 2-(1,3-thiazol-4-yl)-1H-benzoimidazole] | 1.86 | 2.1 | dose-dependent activation | 
3 | C#CCN(C)CCCOc1ccc(Cl)cc1Cl [clorgyline HCl, N-[3-(2,4-dichlorophenoxy)propyl]-N-methylprop-2-yn-1-amine] | 1.16 | 1.9 | dose-dependent activation | 
4 | heregulin |  |  |  | levels of endogenous utrophin A mRNA [3]: increased
5 | Nc1ccc(/N=N/c2ccccc2)c(N)n1 [phenazopyridine HCl, 3-phenyldiazenylpyridine-2,6-diamine] | 1.62 | 2.6 | dose-dependent activation | 
6 | O=C(/C=C/C=C/c1ccc2c(c1)OCO2)N1CCCCC1 [piperine, 1-[5-(1,3-benzodioxol-5-yl)-1-oxo-2,4-pentadienyl]piperidine] | 1.59 | 2.3 | dose-dependent activation | 
7 | COc1ccc2cc(CCC(C)=O)ccc2c1 [nabumetone, 4-(6-methoxy-2-naphthyl)-2-butanone] | 1.56 | 2.5 | dose-dependent activation | whole body weight between treatment groups ([4]; mice, FIG. 5): no difference; muscle weight, EDL ([4]; treated mice, FIG. 5): not significantly bigger; muscle weight, gastrocnemius (gastroc) ([4]; treated mice, FIG. 5, p<0.05): bigger; muscle weight, quadriceps (quads) ([4]; treated mice, FIG. 5, p<0.05): bigger; muscle weight, soleus ([4]; treated mice, FIG. 5, p<0.05): bigger; muscle weight, tibialis anterior (TA) ([4]; treated mice, FIG. 5, p<0.05): bigger; force generating capacity ([4]; treated muscles, FIG. 6): trend towards increased; peak specific twitch force ([4]; treated muscles, FIG. 6, p<0.05): significantly increased; force drop on eccentric contraction ([4]; treated muscles, FIG. 6, trend): decreased
8 | O=c1cc(-c2ccccc2)oc2cc(O)cc(O)c12 [chrysin, 5,7-dihydroxy-2-phenyl-4H-chromen-4-one] | 1.5 | 3.4 | dose-dependent activation | 
9 | Oc1ccc(/C=C/c2cc(O)cc(O)c2)cc1 [resveratrol, trans-3,4′,5-trihydroxystilbene] | 1.62 | 2.2 | dose-dependent activation | 
10 | C[C@]12CC[C@H]3C(=CCc4cc(O)ccc43)[C@@H]1CCC2=O [equilin, 3-hydroxy-13-methyl-9,11,12,14,15,16-hexahydro-6H-cylcopenta(a)phenanthren-17-one] | 1.6 | 3.4 | dose-dependent activation | 
11 | COC1=CC(=O)O[C@@H](/C=C/c2ccccc2)C1 [kawain, [R-(E)]-5,6-dihydro-4-methoxy-6-(2-phenylethenyl)-2H-pyran-2-one] |  |  | dose-dependent activation | Optimal dose [1]: 10 µM; Max. fold change ([1]; luciferase readout): 1.37; Optimal dose ([2]; 96-well format, C2C12utrn cells): 20 µM; Max. fold change [2, 5]: 2.5
12 | O=c1cc(-c2ccc(O)cc2)oc2cc(O)cc(O)c12 [apigenin, 5,7-dihydroxy-2-(4-hydroxyphenyl)-4H-1-benzopyran-4-one] | 1.54 | 3.5 | dose-dependent activation | 
13 | CC(/C=C/C(=O)NO)=C\[C@@H](C)C(=O)c1ccc(N(C)C)cc1 [TSA, Trichostatin A] |  |  |  | levels of endogenous utrophin A mRNA [3]: increased
14 | COc1ccc([C@@H]2CC(=O)c3c(O)cc(O)cc3O2)cc1O [hesperetin, (S)-2,3-dihydro-5,7-dihydroxy-2-(3-hydroxy-4-methoxyphenyl)-4H-1-benzopyran-4-one] | 1.94 | 2.9 | dose-dependent activation | 
15 | Cc1oncc1C(=O)Nc1ccc(C(F)(F)F)cc1 [leflunomide, 5-methyl-N-[4-(trifluoromethyl)phenyl]isoxazole-4-carboxamide] | 1.38 | 2.9 | dose-dependent activation | 
